Assay [1] is described as follows: protection from phage-mediated lysis, alamar blue read-out – E. coli UTI89, K1F phage, bacterial capsule biogenesis inhibitors (AID 488966). Format: functional. Background: The colour change of resazurin is a common sign of viable cells or microbes.
Another assay concerns HEK293. Kind of assay: Fluorescence-based counterscreen for potentiators or agonists of NPY-Y2: cell-based high-throughput dose response assay to identify inhibitors of cyclic nucleotide gated ion channel (CNGC) activity. In this assay, the parental HEK293 cell line transfected with a cyclic-nucleotide gated ion channel (CNGC)-based cAMP sensor is used to measure inhibition of isoproterenol-induced CNGC activity by test compound. Format: functional. As to conditions: Homo sapiens. A general note: The purpose of a counterscreen is to sort out artefacts and off-target activity.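 Further: stimulus is 1 µM isoproterenol at EC100 plus PDE inhibitor Ro 20-1724 at 25 µM.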

In assay [2] the target is T1, Neuropeptide Y receptor type 2 (Homo sapiens, UniProt P49146).
T1 sequence (P49146 whole entry): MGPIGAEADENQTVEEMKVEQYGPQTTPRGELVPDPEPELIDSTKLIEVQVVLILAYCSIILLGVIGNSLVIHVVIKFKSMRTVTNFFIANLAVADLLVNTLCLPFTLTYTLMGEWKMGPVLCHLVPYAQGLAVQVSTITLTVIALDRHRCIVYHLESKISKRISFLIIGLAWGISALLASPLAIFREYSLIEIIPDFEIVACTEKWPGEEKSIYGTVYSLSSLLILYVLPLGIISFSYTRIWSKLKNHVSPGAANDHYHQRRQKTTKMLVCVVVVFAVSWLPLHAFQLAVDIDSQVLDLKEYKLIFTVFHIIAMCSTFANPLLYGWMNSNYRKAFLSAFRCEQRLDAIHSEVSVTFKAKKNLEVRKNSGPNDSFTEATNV
The experiment in a line: Fluorescence-based cell-based high-throughput dose response assay for agonists of NPY-Y2. [Related pubchem assays: 1703 (Screening assay (CNGC inhibitors).), 1359 (Screening assay (NPY-Y2 potentiators or agonists).), 1304 (Screening assay (NPY-Y1 potentiators or agonists).), 1710 (Screening assay (NPY-Y2 agonists).), 1791 (Summary AID.)]. Format: functional.

Assay [3] has as its target T2, Neuropeptide Y receptor type 1 (Homo sapiens, UniProt P25929).
T2 sequence (P25929 whole entry): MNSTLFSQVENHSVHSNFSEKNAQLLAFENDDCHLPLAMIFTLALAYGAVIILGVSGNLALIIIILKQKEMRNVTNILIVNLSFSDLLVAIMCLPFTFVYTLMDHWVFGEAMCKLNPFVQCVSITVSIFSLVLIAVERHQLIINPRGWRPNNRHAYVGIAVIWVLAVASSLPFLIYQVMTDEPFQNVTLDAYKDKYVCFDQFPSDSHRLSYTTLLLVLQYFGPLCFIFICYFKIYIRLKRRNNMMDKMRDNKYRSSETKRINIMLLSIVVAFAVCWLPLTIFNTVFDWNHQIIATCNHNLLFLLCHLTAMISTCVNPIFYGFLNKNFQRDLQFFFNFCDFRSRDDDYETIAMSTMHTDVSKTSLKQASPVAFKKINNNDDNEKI
Kind of assay: Fluorescence-based counterscreen for agonists of NPY-Y2: cell-based high-throughput dose response assay for agonists of NPY-Y1. In kind it is functional.

Assay [4] deals with Potassium voltage-gated channel subfamily KQT member 2 (Rattus norvegicus, UniProt O88943). Kind of assay: potentiation of rat KCNQ2 current – cell-based, retigabine-insensitive compounds, dose response (AID 2654). Format: functional.
Sequence of Potassium voltage-gated channel subfamily KQT member 2 (O88943 whole entry): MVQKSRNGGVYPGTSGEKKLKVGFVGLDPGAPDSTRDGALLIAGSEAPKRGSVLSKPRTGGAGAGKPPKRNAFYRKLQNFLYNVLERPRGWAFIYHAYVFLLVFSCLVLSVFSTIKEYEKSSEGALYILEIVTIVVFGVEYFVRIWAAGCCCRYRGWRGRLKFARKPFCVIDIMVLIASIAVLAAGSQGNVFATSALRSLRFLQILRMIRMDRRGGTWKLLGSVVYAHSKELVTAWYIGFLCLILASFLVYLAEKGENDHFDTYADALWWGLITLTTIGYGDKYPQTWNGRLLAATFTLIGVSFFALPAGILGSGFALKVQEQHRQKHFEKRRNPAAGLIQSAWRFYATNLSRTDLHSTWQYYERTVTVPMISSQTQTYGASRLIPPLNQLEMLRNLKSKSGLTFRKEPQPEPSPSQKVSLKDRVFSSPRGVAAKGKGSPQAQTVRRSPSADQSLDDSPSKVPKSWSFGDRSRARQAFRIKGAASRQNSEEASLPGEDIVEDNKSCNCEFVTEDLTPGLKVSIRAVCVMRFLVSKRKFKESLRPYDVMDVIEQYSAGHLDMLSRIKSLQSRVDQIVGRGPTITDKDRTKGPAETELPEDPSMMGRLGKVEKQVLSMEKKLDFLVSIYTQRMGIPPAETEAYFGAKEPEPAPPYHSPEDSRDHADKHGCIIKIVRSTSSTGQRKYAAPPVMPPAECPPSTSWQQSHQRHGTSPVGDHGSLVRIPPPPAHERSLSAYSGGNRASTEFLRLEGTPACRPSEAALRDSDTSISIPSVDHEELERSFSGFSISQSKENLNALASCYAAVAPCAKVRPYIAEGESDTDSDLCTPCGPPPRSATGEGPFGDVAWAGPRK
In a further assay the test system is HeLa. Kind of assay: Cytotoxicity counterscreen assay for transcriptional activators of heat shock protein 70 (Hsp70). [Related pubchem assays: 1203, 1252 ]. In kind it is functional. The settings on record: Homo sapiens.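 Further: cells exposed to compound for 16 hours before readout.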
Another assay has as its target Paired box protein Pax-8 (Homo sapiens, UniProt Q06710). The experiment in a line: PAX8 transcriptional activity inhibition in RMG-I – RMG-I cells, luciferase, cherry-pick, dose response (AID 687027).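 Further: luciferase reporter driven by Pax8 target thyroperoxidase promoter measured by SteadyGlo luminescence.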 Format: functional, cell-based.
A short description of assay [5]: CMV-driven luciferase expression suppression in HEK293 – cell-based, luminescence, dry powder, counter-screen for Pax8 inhibitor project, dose response (AID 743020). In kind it is functional.
In a further assay the target is Cytochrome P450 2D6 (Homo sapiens, UniProt P10635). Kind of assay: qHTS Assay for Inhibitors and Substrates of Cytochrome P450 2D6. [Related pubchem assays: 410 ]. In kind it is ADME. The settings on record: read-out: Potency. In general terms: Quantitative high-throughput screening tests each substance at several concentrations.
Sequence of Cytochrome P450 2D6 (P10635 whole entry): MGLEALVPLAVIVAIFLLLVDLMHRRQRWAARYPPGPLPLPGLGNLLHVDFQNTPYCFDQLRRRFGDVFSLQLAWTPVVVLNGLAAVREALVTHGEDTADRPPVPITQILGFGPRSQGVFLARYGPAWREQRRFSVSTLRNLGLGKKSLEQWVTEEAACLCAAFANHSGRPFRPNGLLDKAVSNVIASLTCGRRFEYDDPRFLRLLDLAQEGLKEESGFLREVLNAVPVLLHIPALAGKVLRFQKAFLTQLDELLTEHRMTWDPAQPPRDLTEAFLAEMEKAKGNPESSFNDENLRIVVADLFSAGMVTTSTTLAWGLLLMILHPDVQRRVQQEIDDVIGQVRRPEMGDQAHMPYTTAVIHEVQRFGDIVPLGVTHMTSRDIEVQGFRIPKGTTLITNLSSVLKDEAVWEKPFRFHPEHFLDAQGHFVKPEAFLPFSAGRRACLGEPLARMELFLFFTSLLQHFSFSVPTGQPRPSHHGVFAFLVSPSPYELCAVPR
In a further assay the target is Cytochrome P450 2C9 (Homo sapiens, UniProt P11712). The settings on record: Potency.
Sequence of Cytochrome P450 2C9 (P11712 whole entry): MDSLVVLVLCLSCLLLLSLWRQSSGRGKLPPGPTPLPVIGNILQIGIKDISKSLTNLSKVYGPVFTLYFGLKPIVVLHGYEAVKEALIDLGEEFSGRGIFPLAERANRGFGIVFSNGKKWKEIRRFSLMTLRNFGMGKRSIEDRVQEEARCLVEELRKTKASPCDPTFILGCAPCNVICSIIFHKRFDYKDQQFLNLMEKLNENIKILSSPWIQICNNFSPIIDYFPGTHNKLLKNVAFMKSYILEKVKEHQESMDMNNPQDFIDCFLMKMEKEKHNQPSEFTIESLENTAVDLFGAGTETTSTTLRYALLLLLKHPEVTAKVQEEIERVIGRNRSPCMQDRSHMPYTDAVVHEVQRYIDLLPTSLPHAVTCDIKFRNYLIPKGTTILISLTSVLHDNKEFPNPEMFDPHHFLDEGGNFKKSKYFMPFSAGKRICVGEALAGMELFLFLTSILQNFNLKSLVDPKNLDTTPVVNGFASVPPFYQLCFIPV
In assay [6] the target is T3, Eukaryotic translation initiation factor 2-alpha kinase 3 (Homo sapiens, UniProt Q9NZJ5). Kind of assay: Dose response cell-based high-throughput screening assay to measure PERK inhibition. [Related pubchem assays: 1416 ]. Format: functional.
T3 sequence (Q9NZJ5 whole entry): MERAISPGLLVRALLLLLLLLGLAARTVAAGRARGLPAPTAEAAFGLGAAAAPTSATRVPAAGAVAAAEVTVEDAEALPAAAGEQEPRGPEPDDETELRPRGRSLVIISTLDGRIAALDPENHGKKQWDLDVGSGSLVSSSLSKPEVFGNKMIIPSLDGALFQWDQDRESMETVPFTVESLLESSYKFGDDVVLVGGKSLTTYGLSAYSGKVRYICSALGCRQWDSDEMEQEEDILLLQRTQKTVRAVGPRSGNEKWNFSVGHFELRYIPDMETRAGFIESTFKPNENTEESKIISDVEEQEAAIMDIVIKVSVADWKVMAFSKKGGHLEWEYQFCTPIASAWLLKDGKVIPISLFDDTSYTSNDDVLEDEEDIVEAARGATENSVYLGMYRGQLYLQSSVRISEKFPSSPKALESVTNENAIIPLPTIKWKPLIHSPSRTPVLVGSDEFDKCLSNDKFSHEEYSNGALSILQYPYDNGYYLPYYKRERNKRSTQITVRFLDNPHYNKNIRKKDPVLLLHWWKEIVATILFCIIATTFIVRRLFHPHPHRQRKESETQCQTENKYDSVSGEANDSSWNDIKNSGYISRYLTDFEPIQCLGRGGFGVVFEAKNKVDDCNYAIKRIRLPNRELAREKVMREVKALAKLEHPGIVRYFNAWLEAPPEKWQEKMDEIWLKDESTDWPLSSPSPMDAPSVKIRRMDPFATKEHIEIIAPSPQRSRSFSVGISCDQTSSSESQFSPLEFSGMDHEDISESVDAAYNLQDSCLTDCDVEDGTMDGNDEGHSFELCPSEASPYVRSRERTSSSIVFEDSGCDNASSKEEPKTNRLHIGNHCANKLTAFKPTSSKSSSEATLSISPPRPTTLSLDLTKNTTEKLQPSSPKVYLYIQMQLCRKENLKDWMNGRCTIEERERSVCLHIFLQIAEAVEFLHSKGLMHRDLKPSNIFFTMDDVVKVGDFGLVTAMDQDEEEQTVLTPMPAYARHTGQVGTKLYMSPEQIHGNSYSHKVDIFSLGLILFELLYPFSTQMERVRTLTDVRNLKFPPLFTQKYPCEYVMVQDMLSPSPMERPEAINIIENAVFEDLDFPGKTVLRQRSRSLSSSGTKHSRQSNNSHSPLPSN
Assay [7] concerns the target T3, Eukaryotic translation initiation factor 2-alpha kinase 3. The experiment in a line: Counterscreen assay for PERK inhibitors: Dose response cell-based high throughput screening assay to measure inhibition of PERK at 6 hours. [Related pubchem assays: 1522, 1416 ]. In kind it is functional.

Several values for one entry are separate records, joined by “and”; a condition that tells them apart may be missing. Identical values can stand only once. Activity calls are given as the source filed them. Where only a bound is given, the exact number is not on record here.

Sequence of Paired box protein Pax-8 (Q06710 whole entry): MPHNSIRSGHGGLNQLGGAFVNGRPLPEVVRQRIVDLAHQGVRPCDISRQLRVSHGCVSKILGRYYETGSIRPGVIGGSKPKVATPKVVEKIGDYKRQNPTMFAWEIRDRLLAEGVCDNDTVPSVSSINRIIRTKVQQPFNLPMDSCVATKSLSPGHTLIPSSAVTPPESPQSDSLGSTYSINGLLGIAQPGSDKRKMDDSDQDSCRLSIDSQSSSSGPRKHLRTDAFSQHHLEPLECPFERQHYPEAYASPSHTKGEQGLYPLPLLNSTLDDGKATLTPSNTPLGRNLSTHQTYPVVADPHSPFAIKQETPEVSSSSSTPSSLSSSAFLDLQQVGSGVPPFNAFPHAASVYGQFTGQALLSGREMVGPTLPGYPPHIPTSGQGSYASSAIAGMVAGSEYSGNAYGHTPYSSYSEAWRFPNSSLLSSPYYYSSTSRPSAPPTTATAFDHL

For `Cc1nc(NC(=O)c2ccco2)sc1C(=O)Nc1ccc(Br)cc1`, the half-inhibitory concentration (IC50) (usually the midpoint of a concentration-inhibition curve) in assay [1] is > 75 µM (active).

On to `O=C(/C=C/c1cn(-c2ccccc2)nc1-c1cccnc1)N1CCCC1`, for which the half-maximal effective concentration (EC50) (with HEK293; in assay [2]; in assay [3]) was > 35.4 µM (not active) each time.

As to `Cc1cccc(NC(=O)Nc2cccnc2)c1C`, in [4], the EC50 (as a rule, the concentration giving half of the maximal effect) is 16 µM (active).

For `CCCC(=O)N1CCN(c2ccc(NC(=O)c3ccc([N+](=O)[O-])o3)cc2)CC1`, in the assay with HeLa, the 50% cytotoxic concentration (CC50) (as a rule, the concentration giving 50% cytotoxicity) was 6.29 µM (active). Moreover, the results for the AC50 (at Paired box protein Pax-8; in assay [5]) were 5.17 µM (active) and 19.9 µM (active), respectively.

With `COC(=O)[C@@H]1[C@H]2C[C@H]3c4[nH]c5cc(OC)ccc5c4CCN3C[C@@H]2C[C@@H](OC(=O)c2cc(OC)c(OC)c(OC)c2)[C@@H]1OC`, the AC50 is 39.8 µM (inconclusive) and 12.6 µM (inconclusive) on Cytochrome P450 2D6; 15.8 µM (inconclusive) at Cytochrome P450 2C9.

In the case of `Cc1cc2c(NC(=O)Nc3ccc(F)cc3)cccc2nn1`, the EC50 in [6] and in [7] was > 55.7 µM (not active) each time.

For the origin of these results see ChEMBL document CHEMBL1201862, “PubChem BioAssay data set” (2004).
